Key:
[1] = test system: Neuro-2a cells (mouse-derived neuroblastoma); assay: Bilateral mouse neuroblastoma model in A/JGpt mice, right-side intratumoral injection; assay type: in vivo
Procedure: Mouse-derived neuroblastoma cells (Neuro-2a cells, 1×10^8/0.1 ml/mouse) were inoculated into the bilateral lumbar region of A/JGpt female mice (SPF grade 5-week-old). When the diameter of subcutaneous tumor nodules reached 5-6 mm (about 50-100 mm^3), mice were randomly divided into groups per the <10% of tumor volume. The DS1-M2-1 was injected intratumorally only into the right-side tumor on day one.
During the test period, the body weight of each mouse was normal. […] Since the left-side tumor is the non-administered side, it is considered that the effect of DS1-M2-1 on the left-side tumor is a result of the immunotherapy effect.

[2] = test system: SH-SY5Y cells (human neuroblastoma); assay: Human neuroblastoma xenograft model in BALB/c nude mice; assay type: in vivo; conditions: Adriamycin group
Procedure: The attenuated WNV was tested for oncolytic virus activity. Under aseptic conditions, SH-SY5Y cells (4×106/0.1 ml/per mouse) were inoculated into the right flank region of SPF-grade BALB/c nude mice aged 8 to 10 weeks to establish a human neuroblastoma xenograft model. When the diameter of the subcutaneous tumor nodules reached 5˜6 mm (corresponding to a tumor volume of approximately 50 mm3˜100 mm3), the mice were randomly divided into groups ensuring that the difference in tumor volume between groups was <10%. Grouping and management information are as described in Table 4. The day of the first administration was recorded as D1.
The half-effective dose is 421 PFU.

[3] = Doxorubicin-Hydro group, left tumor
[4] = Doxorubicin-Hydro group, right tumor

| Structure (SMILES) | Max % TGITV, L ([1]; Taxol 20 mg/kg, left tumor) | No. of mice with tumor completely eliminated, No./Total, L ([1]; Taxol 20 mg/kg, left tumor) | Max % TGITV, R ([1]; Taxol 20 mg/kg, right tumor) | No. of mice with tumor completely eliminated, No./Total, R ([1]; Taxol 20 mg/kg, right tumor) | Max % TGITV, L [1, 3] | No. of mice with tumor completely eliminated, D 22, L [1, 3] | No. of mice with tumor completely eliminated, No./Total, L [1, 3] | Max % TGITV, R [1, 4] | No. of mice with tumor completely eliminated, D 18, R [1, 4] | No. of mice with tumor completely eliminated, D 22, R [1, 4] | No. of mice with tumor completely eliminated, No./Total, R [1, 4] | % T/C [2] | % TGITV [2] | % TGITW [2] | Tumor Volume (mm^3) Day 31 [2] | Tumor Weight [2] |
| --- | --- | --- | --- | --- | --- | --- | --- | --- | --- | --- | --- | --- | --- | --- | --- | --- |
| CC(=O)O[C@H]1C(=O)[C@@]2(C)[C@H]([C@H](OC(=O)c3ccccc3)[C@]3(O)C[C@H](OC(=O)[C@H](O)[C@@H](NC(=O)c4ccccc4)c4ccccc4)C(C)=C1C3(C)C)[C@]1(OC(C)=O)CO[C@@H]1C[C@@H]2O [Taxol, paclitaxel] | 50.74% | 0/4 | 46.73% | 0/4 | – | – | – | – | – | – | – | – | – | – | – | – |
| COc1cccc2c1C(=O)c1c(O)c3c(c(O)c1C2=O)C[C@@](O)(C(=O)CO)C[C@@H]3O[C@H]1C[C@H](N)[C@H](O)[C@H](C)O1 [Adriamycin, doxorubicin] | – | – | – | – | 84.23% | 3 | 3/10 | 83.25% | 1 | 2 | 3/10 | 37.43% | 63.27% | 53.12% | 468.07 ± 145.59 mm^3 | 0.406 ± 0.157 g |
